Measurements reported in ChEMBL document CHEMBL1145595, “5-Substituted isophthalamides as insulin receptor sensitizers” (Bioorg Med Chem Lett, 2008).
The source made the active and inactive calls. The rule behind the calls is not given here.

Legend:
3T3-L1 = assay: (§1) Activity at Insulin receptor in mouse 3T3-L1 cells assessed as glucose uptake; type: cell-based
[1] = as §1; type: cell-based

SMILES | EC50 [1] [µM] | Activity (3T3-L1)
O=C(Nc1cc(C(=O)Nc2cccc3cc(S(=O)(=O)O)ccc23)cc(C(=O)Nc2cccc3cc(S(=O)(=O)O)ccc23)c1)c1ccncc1 |  | inactive
O=C(Nc1cccc2cc(S(=O)(=O)O)ccc12)c1cc(NC(=O)c2cnc3ccccc3n2)cc(C(=O)Nc2cccc3cc(S(=O)(=O)O)ccc23)c1 |  | inactive
O=C(Nc1cc(C(=O)Nc2cccc3ccccc23)cc(C(=O)Nc2cccc3cc(S(=O)(=O)O)ccc23)c1)c1cccc(Cl)c1 | 66.5 | 
O=C(Nc1ccc2c(O)c(/N=N/c3ccc(/N=N/c4ccc(S(=O)(=O)O)cc4)cc3S(=O)(=O)O)c(S(=O)(=O)O)cc2c1)Nc1ccc2c(O)cc(S(=O)(=O)O)c(/N=N/c3ccc(/N=N/c4ccc(S(=O)(=O)O)cc4)cc3S(=O)(=O)O)c2c1 | 90 | 
O=C(Nc1cccc2cc(S(=O)(=O)O)ccc12)c1cc(NC(=O)C2CCCCC2)cc(C(=O)Nc2cccc3cc(S(=O)(=O)O)ccc23)c1 |  | inactive
O=C(Nc1cc(C(=O)Nc2cccc3cc(O)ccc23)cc(C(=O)Nc2cccc3cc(S(=O)(=O)O)ccc23)c1)c1cccc(Cl)c1 | 61.7 | 
O=C(Cc1cccc(Cl)c1)Nc1cc(C(=O)Nc2cccc3cc(S(=O)(=O)O)ccc23)cc(C(=O)Nc2cccc3cc(S(=O)(=O)O)ccc23)c1 |  | inactive
O=C(Nc1cccc2cc(S(=O)(=O)O)ccc12)c1cc(C(=O)Nc2cccc3cc(S(=O)(=O)O)ccc23)cc(C(=O)Nc2cccc3cc(S(=O)(=O)O)ccc23)c1 | 135 | 
O=C(Nc1cccc(Cl)c1)Nc1cc(C(=O)Nc2cccc3cc(S(=O)(=O)O)ccc23)cc(C(=O)Nc2cccc3cc(S(=O)(=O)O)ccc23)c1 |  | inactive
O=C(Nc1cccc2cc(S(=O)(=O)O)ccc12)c1cc(NC(=O)c2ccco2)cc(C(=O)Nc2cccc3cc(S(=O)(=O)O)ccc23)c1 |  | inactive
O=C(Nc1cccc2cc(S(=O)(=O)O)ccc12)c1cc(NS(=O)(=O)c2ccc(F)cc2)cc(C(=O)Nc2cccc3cc(S(=O)(=O)O)ccc23)c1 |  | inactive
O=C(Nc1cc(C(=O)Nc2cccc3cc(S(=O)(=O)O)ccc23)cc(C(=O)Nc2cccc3cc(S(=O)(=O)O)ccc23)c1)c1ccc([N+](=O)[O-])cc1 |  | inactive
O=C(Nc1cc(C(=O)Nc2cccc3cc(S(=O)(=O)O)ccc23)cc(C(=O)Nc2cccc3cc(S(=O)(=O)O)ccc23)c1)c1cccc([N+](=O)[O-])c1 | 44.5 | 
O=C(Nc1cc(C(=O)Nc2cccc3cc(S(=O)(=O)O)ccc23)cc(C(=O)Nc2cccc3cc(S(=O)(=O)O)ccc23)c1)c1cccnc1 |  | inactive

The next lines start with results.

EC50 [1] [µM] | SMILES | Activity (3T3-L1)
78.5 | O=C(Nc1cc(C(=O)Nc2cccc3cc(S(=O)(=O)O)ccc23)cc(C(=O)Nc2cccc3cc(S(=O)(=O)O)ccc23)c1)c1ccc(F)cc1 | 
19.4 | O=C(Nc1cc(C(=O)Nc2cccc3cc(S(=O)(=O)O)ccc23)cc(C(=O)Nc2cccc3cc(S(=O)(=O)O)ccc23)c1)c1cccc(F)c1 | 
72.8 | O=C(Nc1cc(C(=O)Nc2cccc3cc(S(=O)(=O)O)ccc23)cc(C(=O)Nc2cccc3cc(S(=O)(=O)O)ccc23)c1)c1ccc(Cl)cc1 | 
5.7 | O=C(Nc1cc(C(=O)Nc2cccc3cc(S(=O)(=O)O)ccc23)cc(C(=O)Nc2cccc3cc(S(=O)(=O)O)ccc23)c1)c1cccc(Cl)c1 | 
12.8 | O=C(Nc1cccc2cc(S(=O)(=O)O)ccc12)c1cc(NC(=O)c2cccc3ccccc23)cc(C(=O)Nc2cccc3cc(S(=O)(=O)O)ccc23)c1 | 
3.7 | O=C(Nc1cc(C(=O)Nc2cccc3cc(S(=O)(=O)O)ccc23)cc(C(=O)Nc2cccc3cc(S(=O)(=O)O)ccc23)c1)c1ccc2ccccc2c1 | 
